What all share (format): cell-based, mouse
One test deals with hippocampal CA1 region. Put plainly: Picrotoxin-induced epilepsy activity in intact hippocampal slices. As to conditions: picrotoxin 50 μM. How it is done:
Selective inhibition of excitatory synaptic transmission rather than inhibitory synapse transmission means that SYR may change the balance between synapse excitation and inhibition in neurons. We checked whether this synapse regulation might inhibit epilepsy pathogenic activity caused by excessive excitement of the neural network. To model an epilepsy pathogenic neuron network in experimental conditions (in vitro), the hippocampal slice was prepared while the CA3 region was left. During recording, ACSF containing picrotoxin (50 μM) was perfused in intact hippocampal slices. […] Continuous picrotoxin perfusion (>20 min) discharged an epilepsy pathogenic excitation wave. This wave was characterized by a three to seven population spikes (PS) waveform of a decreasing amplitude (FIG. 7C).

Test [1] relates to CA1 neurons (inhibitory synaptic transmission). Briefly: Miniature IPSC (mIPSC) recording in CA1 neurons. How it is done: A miniature EPSC (mEPSC) was measured at −70 mV with a pipette solution. In this connection, the pipette solution contained 110 mM K-gluconate, 20 mM KCl, 8 mM NaCl, 10 mM HEPES, 0.5 mM QX-314-C1, 4 mM Mg-ATP, 0.3 mM Na-GTP and 0.5 mM EGTA. The solution had pH 7.25 and 290 mOsm/kg. Voluntary action potentials and IPSCs were blocked by TTX (1 μM) and picrotoxin (50 μM), respectively. For mIPSC recording, the K-gluconate in the pipette solution was replaced with the KCl having the same number of moles as the K-gluconate.
The effect of SYR on the miniature IPSC (mIPSC) was checked.

Test [2] has as its system AMPAR-EPSC in CA1 neurons. Put plainly: AMPAR-mediated EPSC whole-cell patch clamp in CA1 neurons. How it is done:
To measure evoked excitatory post-synaptic current (eEPSC), the synapse potential was recorded using a patch pipette (3 to 4Mohm) via the membrane voltage clamp technique. The patch pipette contained a solution containing 100 mM CsMeSO4, 10 mM TEA-Cl, 20 mM CsCl, 8 mM NaCl, 10 mM HEPES, 0.5 mM QX-314-Cl, 4 mM Mg-ATP, 0.3 mM Na-GTP and 10 mM EGTA and having pH 7.25 and 290 mOsm/kg. EPSC was measured at a frequency of 0.05 Hz. The synaptic current was induced using a glass pipette (0.3 to 0.5 Mohm). GABAA receptor (GABAAR) antagonist picrotoxin (50 μM) was added to ACSF.
Thus, it was necessary to check the effect of SYR on desensitization of AMPAR in CA1 neurons. The whole-cell patch clamp technique was used in the presence of NMDAR blocker AP-5 and GABAA receptor blocker picrotoxin (PTX, 50 μM).
To confirm this assumption, we examined the effect of SYR on AMPAR-EPSC by injecting, as the actin-stabilizer, jasplakinolide (2 μM) into the patch pipette solution (FIG. 3H to FIG. 3J).
Furthermore, we checked whether post-synaptic loading of SYR regulates AMPAR-EPSC. We measured AMPAR-EPSC for 25 minutes immediately after cell membrane-punching using a K+-based pipette solution. […] If the post-synaptic loading of SYR affects AMPAR-EPSC, gradual diffusion of SYR from the pipette solution should inhibit AMPAR-EPSC.
Previous studies have shown that the secretion probability is regulated by the size of the readily releasable pool (RRP) of hippocampal neurons. Therefore, RRP was measured before and after treatment with SYR (100 μM). A high-frequency train (20 Hz) composed of more than 60 stimuli was prepared. 80 stimuli at 20 Hz was applied to completely remove RRP from the SC-CA1 synapse. RRP size was measured by cumulative amplitude analysis (Stevens and Williams, 2007; Wesseling and Lo, 2002).

The subject of the next test is CA1 neurons. Briefly: Whole-cell current clamp recording of membrane potential. From the text: Next, whole-cell current clamp recordings were used to check the effect of SYR on the membrane potential of CA1 neurons.
Test [3] deals with Schaffer collateral (SC)-CA1 synapse of the hippocampus. Put plainly: fEPSP recording in hippocampal SC-CA1 synapse (hippocampal slices). The settings on record: for first and second fEPSPs: paired pulse interval 100 ms. How it is done:
A hippocampus slice (400 μm thick) was prepared in a cold dissection buffer using a vibrating machine (Vibratome, Leica, Germany) and then a CA3 region of each slice was removed surgically immediately after the slice formation. In this connection, the cold dissection buffer contained sucrose 230 mM; NaHCO3 25 mM; KCl 2.5 mM; NaH2PO4 1.25 mM; D-glucose 10 mM; Na-ascorbic acid salt 1.3 mM; MgCl2 3 mM; CaCl2 0.5 mM, 95% O2/5% CO2 and had pH 7.4. The slice was recovered in a normal ACSF (artificial cerebrospinal fluid) for 1 hour and then maintained at room temperature (23 to 25° C.) until recording. […] All electrophysiological experiments were performed in a recording chamber while the samples were immersed in the solution in a manner described previously (Song et al., 2017). Signals were amplified using a MultiClamp 700B amplifier (Molecular Devices, CA, USA) at a cut-off frequency of 2.8 kHz and were measured with a Digidata 1440A interface (Molecular Devices) at a 10 kHz sampling frequency. Data were collected using pClamp 10.2 (Molecular Devices) software. The collected data were analyzed with a program created in the lab using Igor Pro (WaveMetrics, OR, USA). To record the field excitatory post-synaptic potential (fEPSP) in the hippocampal SC-CA1 synapse, hippocampal slices were placed in the recording chamber and perfused with ACSF while oxygen was fed continuously to the ACSF. The ACSF was maintained at a temperature of 29 to 30° C. using a heater for perfusion (SH-27B, Warner Instruments, CT, USA). A synapse response was induced by stimulation with a glass pipette (0.3 to 0.5 Mohm) every 20 seconds (0.05 Hz). The synapse response was recorded using a glass pipette (3 to 4 Mohm) filled with ACSF. The intensity of the stimulus was adjusted to produce a synapse response of about ⅓ of the maximum value thereof. The slices with unstable (10%) baseline records were excluded. To investigate the effect of syringaresinol (SYR) on the synaptic transmission, the field excitatory post-synaptic potential (fEPSP) of the Schaffer collateral (SC)-CA1 synapse of the hippocampus of adult mice (4 to 6 weeks of age) was measured. After confirming the stable baseline, different concentrations of SYR were applied thereto using the perfusion solution.

As to `COc1cc(C2OCC3C(c4cc(OC)c(O)c(OC)c4)OCC23)cc(OC)c1O` (stereo not shown) [SYR, syringaresinol], in the test with hippocampal CA1 region, the “amplitude of first epilepsy pathological excitation wave (first PS)” value is “decreased”, the “area of the epilepsy pathological fEPSP (population spike)” value is reported as “decreased”, the “epilepsy pathological excitation wave” value is reported as “significantly inhibited” and the “slope of fEPSP in epilepsy-induced hippocampal slice” value is “rapidly reduced”. In test [1], the “amplitude of mIPSC” value is given as “did not affect” and the “frequency of mIPSC” value is given as “did not affect”. In addition, in test [2] (100 μM, AP-5 and picrotoxin present), the AMPAR-EPSC entry is listed as “inhibited”. Besides, in test [2] (fixed potential of −70 mV, AP-5 and picrotoxin 50 μM present), the “excitatory post-synaptic current (EPSC) amplitude” value is on record as “significantly reduced”. Besides, the “time constant of EPSC reduction (decay)” value in test [2] (−70 mV) was “did not affect”. For the same molecule, the “membrane potential of CA1 neurons” value with CA1 neurons (SYR 100 μM applied extracellularly) was “Significant hyperpolarization”. The resting membrane potential result in the test with CA1 neurons (SYR 100 μM in the pipette solution) was “did not affect resting membrane potential”. Besides, in test [3] (30 μM and 100 μM, interval 100 ms), the “paired-pulse ratio (PPR) of fEPSP” value is “gradually increased”. The “first and second fEPSPs” value in test [3] (30 μM) was “significantly decreased”. In test [3] (100 μM, 1 h), the “amplitude of fEPSP during SYR perfusion (1 h)” value is “rapidly decreased and then remained stable”. Also, the “PPR before vs one hour after application, small inter-pulse interval” value in test [3] (100 μM, interval 200 ms) is on record as “significant difference in PPR”. For the same molecule, the “PPR before vs one hour after application, large inter-pulse interval” value in test [3] (100 μM, interval 500 ms) is “no difference in PPR”. The “first and second fEPSPs” value in test [3] (100 μM) is reported as “significantly decreased”. The inhibition at 500 µM in test [3] (Mus musculus, 500 μM of SYR, read-out: maximum inhibition of fEPSP) came to 75.9 ± 1.6%. Also, the IC50 in test [3] (Mus musculus, SC-CA1 synapse, hippocampal slice, bath perfusion, read-out: IC50 for decrease of slope and amplitude of fEPSP) was determined as 90 µM. For the same molecule, in test [3] (high concentrations, >10 μM), the “post-synaptic response (fEPSP)” value was “decreased rapidly”. Also, the “effect on fEPSP” value in test [3] (low concentrations, 1 to 5 μM) is reported as “did not affect fEPSP”. In test [3] (washout), the “PPR and fEPSP after washing the SYR with control solution” value was “slowly recovered to baseline”.

Values taken from patent US11000501B2, “Composition for preventing or treating neurological and mental disorders, containing syringaresinol” (SEOUL NATIONAL UNIVERSITY R&DB FOUNDATION, priority 2016, dated 2021).
